Assay results reported in patent publication US10966959B2, “Use of a rotifer-derived compound and its analogs for preventing schistosomiasis” (Wisconsin Alumni Research Foundation, priority 2018, dated 2021).
“Also recorded” adds a separate entry of the source.

Experiments:
S. mansoni cercariae [1] = experiment: Cercarial paralysis assay; format: cell-based
Procedure: Infected B. glabrata snails provided by Biomedical Research Institute (BRI, Rockville, Md.) were maintained in artificial pond water and fed Layer Crumbles (chicken feed) (Rural King, Mattoon, Ill.). To obtain S. mansoni cercariae, B. glabrata snails were exposed to light at 26° C. for 1-2 hrs. Artificial pond water containing cercariae was passed through 100 μm cell strainer (Falcon, Corning Inc., Corning, N.Y.) to remove snail food and feces. Cercariae were then collected using custom-made 20 μm cell strainers.
Cercarial Paralysis Assay
To capture the whole field while avoiding excess reflected light in a well, we used the lid of 96-well plate (Costar, Corning Inc., Corning, N.Y.). 40 μL of artificial pond water containing ˜50 cercariae were added to each shallow well on the lid. 10 μL of SPF (dissolved in APW) was then added to reach the final concentration indicated. Using a high-speed camera (Olympus i-SPEED TR), attached to a stereomicroscope (Leica MZ125, Leica Microsystems, Wetzlar, Germany), we recorded cercariae movement at 20-60 fps at 1.25× magnification just prior to addition of test compounds until 3-4 minutes after treatment started. Raw movies were converted to .avi files using i-SPEED Viewer and compressed into JPEG format using ImageJ (addition of compound is considered time 0). We then counted the numbers of free swimming/paralyzed cercariae every 5 seconds for 1 minute and every 30 seconds thereafter for 3 minutes. The number of dead cercariae (those that never swim before and after SPF treatment) were subtracted from data. Experiments were performed in triplicate.
To determine if cercariae react to SPF or other analogs in a dose-dependent manner, serial dilutions of SPF were made in APW. To quantify the paralysis effect of SPF, the movement of the cercariae was recorded, as well as the number of free-swimming and non-swimming cercariae. In the absence of SPF, over 82% of cercariae were free-swimming over three minutes (FIG. 1(A)). In the presence of 2.5 nM SPF, the percentage of free-swimming cercariae dropped to 67% at three minutes post drug treatment. As the concentration of SPF increased, the rate of paralysis increased, and more cercariae were paralyzed at the end of the treatment.

S. mansoni cercariae [2] = experiment: Mouse infection experiment (mouse tail exposure to drug-treated cercariae); format: in vivo; conditions: for liver granulomas / schistosome eggs in histological liver sections / adult worms recovered from infected mice: six weeks post infection
Procedure: Mouse Infection Experiment
Mouse infections were performed by exposing mouse tails to S. mansoni cercariae according to standard protocol from BRI with slight modifications (see Lewis et al., Curr. Protoc. Immunol., 2001, Chapter 19). Briefly, we secured mice in rodent restrainers (Thomas Scientific, Cat #551-BSRR) and put them vertically on top of a rack with grids. We pipetted 100 μL of each drug in proper concentration into a skinny glass tube (Fisher Scientific, Cat #14-958A) inside a 12×75 mm holding glass tube (VWR, Cat #47729-570). 300 μL of APW containing ˜200 cercariae were pipetted into each skinny tube and incubated for 10 mins before we inserted mouse tail. Mouse tails were wiped with APW-moistened Kimwipes, inserted into the skinny tube, and exposed to cercariae for 30 mins. We sacrificed and perfused these mice six week-post infection. For each drug, we initially used three mice for controls (APW only) and three mice for each concentration tested except for 25 nM Ht-13-A and Ht-13-A-pr. We then repeated the experiments again with three mice for each condition. In addition, we included six mice for 25 nM Ht-13-A and Ht-13-A-pr so that we had six biological replicates total for each condition.
Adult worms were recovered by hepatic portal vein perfusion and briefly incubated in 2.5% Tricaine (Sigma) to separate males and females. We counted total numbers of adult worms under a stereomicroscope (Leica MZ75, Leica Microsystems). Livers from infected mice were fixed in 4% formaldehyde in PBS overnight. Largest liver lobes (left lobe) were submitted to University of Wisconsin-Madison Histology Core Facility for sectioning and Hematoxylin and Eosin staining. Each left lobe was evenly cut into 4-6 pieces and paraffin embedded on a large cassette. One slide (4-6 liver sections) for each liver was used for histological examination, which provided a representative view throughout the whole liver lobe. We took a tiled image of the whole slide using a Zeiss Axio Zoom microscope and used ImageJ (National Institutes of Health, Bethesda, Md.) to determine the area of each section. Total numbers of eggs in each section were counted and normalized to the area.
To determine if SPF-induced paralysis could prevent infection, ˜200 cercariae were treated with different concentrations of SPF (25 nM, 250 nM, and 2.5 μM) for 10 min followed by a 30 min mouse tail infection (N=6 for each condition). Six-weeks post infection, the mice were euthanized, hepatic portal vein perfusion was performed, recovered schistosomes were counted, and mouse liver pathology was examined. In the control group, 83 adult worms were recovered on average (FIG. 2(A)). Livers from these mice appeared dark in color and had extensive granuloma formation (FIG. 2(A)). […] Without wishing to be bound by theory, it is possible that mechanical and/or chemical stimuli from mouse tails may overcome the SPF-induced paralytic effects at low SPF concentrations.

Compound: COc1ccc2[nH]cc3c2c1OC1C(C)CN(C)C1C3 (centres unmarked) [SPF, 5-methoxy-7,9-dimethyl-6a,7,8,9,9a,10-hexahydro-2H-pyrrolo[2′,3′:6,7]oxepino[4,3,2-cd]indole]
- percentage of free-swimming cercariae (S. mansoni cercariae [1]; 2.5 nM, three minutes post drug treatment): 67%
- paralytic effect on cercariae (S. mansoni cercariae [1]; 25 nM, in vitro): could paralyze most cercariae
- paralytic effect on cercariae (S. mansoni cercariae [1]; 250 nM): maximum paralytic effect; also recorded: full paralysis
- time until majority of cercariae paralyzed (S. mansoni cercariae [1]; 250 nM): ≤ 30 s
- paralytic effect on cercariae (S. mansoni cercariae [1]; 2.5 μM): maximum paralytic effect; also recorded: full paralysis
- time until majority of cercariae paralyzed (S. mansoni cercariae [1]; 2.5 μM): ≤ 30 s
- effect on mouse infection (S. mansoni cercariae [2]; 25 nM): not as severe
- blocking / inhibition of infection (S. mansoni cercariae [2]; 250 nM): complete inhibition of infection
- liver granulomas (S. mansoni cercariae [2]; 250 nM): no granulomas were observed
- schistosome eggs in histological liver sections (S. mansoni cercariae [2]; 250 nM): clear of schistosome eggs
- blocking / inhibition of infection (S. mansoni cercariae [2]; 2.5 μM): complete inhibition of infection
- liver granulomas (S. mansoni cercariae [2]; 2.5 μM): no granulomas were observed
- schistosome eggs in histological liver sections (S. mansoni cercariae [2]; 2.5 μM): clear of schistosome eggs
- adult worms recovered from infected mice (S. mansoni cercariae [2]; cercariae treated with 250 nM for 10 min): no adult worms could be recovered
- adult worms recovered from infected mice (S. mansoni cercariae [2]; cercariae treated with 2.5 μM for 10 min): no adult worms could be recovered
- liver appearance (post perfusion) (S. mansoni cercariae [2]; higher concentrations of drug treatment): normal morphologies with few or no granulomas
- liver appearance (post perfusion) (S. mansoni cercariae [2]; lower concentrations of drug): darker in color and contained more granulomas
